How the values were obtained:
[1] = tested on: Human dermal fibroblast cells; assay: Cell survival after UVB irradiation, Trypan blue exclusion; type: cell-based; conditions: viable cells at 48 hours after irradiation, FIG. 2
Protocol: Human dermal fibroblast cells were cultured in basal medium in 6-well plates at 50,000 cells per well. The cells were incubated in medium alone or with added 4 mM R-3-hydroxybutyl-(R)-3-hydroxybutyrate. After reaching 80-90% confluence, cells were washed with phosphate-buffered saline and the medium was replaced with a thin layer of Hanks buffer, (a balanced salt solution designed to use with cells in non-CO2 atmospheric conditions). Cells were irradiated at doses of 25, 50, 100, 150, 300 and 600 mJ/cm^2 using a portable UVB source (302 nm) with a fluence rate of 0.9 mW/cm^2 at cell level. UV irradiation was performed in a fume hood to maintain sterility. After irradiation, cells were washed and incubated in medium alone or with added 4 mM R-3-hydroxybutyl-(R)-3-hydroxybutyrate (as they had been before irradiation). Another group of irradiated cells, which had initially been grown in basal medium without deltaG, was incubated with added 4 mM R-3-hydroxybutyl-(R)-3-hydroxybutyrate. Cell survival was determined by counting viable cells using Trypan blue exclusion at 48 hours after irradiation.

hands of the user (skin) = assay: Neat topical application to dry hands, visual inspection; type: in vivo; conditions: used neat, massaged into dry hands, inspected after 30 minutes
Source text: D-betahydroxybutyrate butanediol monoester was used neat in this experiment. The hands of the user were visually inspected prior to application of the D-betahydroxybutyrate butanediol monoester. […] D-betahydroxybutyrate butanediol monoester was applied to the hands and massaged in to the skin thoroughly.

[2] = tested on: Primary human dermal fibroblasts (HDF); assay: Live and dead assay (Calcein AM / EthD-III) of human dermal fibroblast growth; type: cell-based; conditions: 4 mM in basal medium, after 10 days incubation, FIG. 1
Protocol: Primary human dermal fibroblasts (HDF), with a seeding capacity of 2,500 cells/cm^2, […] (HF) basal medium (TCS Cellworks) or basal medium containing 4 mM of the ketone ester, deltaG. The basal medium was changed daily. Cell viability was determined using a live and dead assay kit, with two colour fluorescence staining of live and dead cells using the probes, Calcein AM and EthD-III.

C[C@@H](O)CCOC(=O)C[C@@H](C)O [R-3-hydroxybutyl-(R)-3-hydroxybutyrate]
protection from UVB radiation (cell survival) ([1]; 4 mM both before and after radiation exposure, compared with after radiation only): conferred no further benefit
protection from UVB radiation (cell survival) ([1]; 4 mM given to the cells after radiation, UVB 302 nm, doses between 150 and 600 mJ/cm^2, p<0.05): protected human dermal fibroblasts from UVB radiation
visual inspection of hands (dryness, wrinkling, feel) (hands of the user (skin)): visually noticeable improvement in properties including less dryness, less wrinkling and an improved feel
dead cells ([2]; compared with control): fewer dead cells
live cells ([2]; vs. 75% in control, P<0.05): 89%
